In ChEMBL document CHEMBL5143510, “Structure modification and biological evaluation of indole-chalcone derivatives as anti-tumor agents through dual targeting tubulin and TrxR” (Eur J Med Chem, 2022):
The source made the active and inactive calls. The calls are words filed in the database; no cut-off is given here.

Experiments:
A2780 = assay: Antiproliferative activity against human A2780 cells assessed as reduction in cell viability incubated for 48 hrs by MTT assay; type: functional, cell-based; settings: A2780, 48 h
MHCC97H [1] = assay: Induction of morphological changes in human MHCC97H cells assessed as cell rounding at 5 to 50 nM incubated for 48 hrs by phase contrast microscopic analysis; type: functional, cell-based; settings: dose 5-50 nM
A549 = assay: Antiproliferative activity against human A549 cells assessed as reduction in cell viability incubated for 48 hrs by MTT assay; type: functional, cell-based; settings: A549, 48 h
MHCC97H [2] = assay: Antiproliferative activity against human MHCC97H cells assessed as reduction in cell viability incubated for 48 hrs by MTT assay; type: functional, cell-based
[3] = Cytotoxicity against human HLF cells assessed as reduction in cell viability incubated for 48 hrs by MTT assay; type: toxicity, cell-based
[4] = Cytotoxicity against human MCF-10A cells assessed as reduction in cell viability incubated for 48 hrs by MTT assay; type: toxicity, cell-based
[5] = Selectivity ratio, ratio of IC50 for cytotoxicity against human HUVEC cells to IC50 for antiproliferative activity against human MHCC97H cells; type: toxicity, cell-based; settings: HUVEC cells versus MHCC97H cells, read-out: Ratio IC50
[6] = Selectivity ratio, ratio of IC50 for cytotoxicity against human L02 cells to IC50 for antiproliferative activity against human MHCC97H cells; type: toxicity, cell-based; settings: L02 cells versus MHCC97H cells, read-out: Ratio IC50
[7] = Selectivity ratio, ratio of IC50 for cytotoxicity against human HLF cells to IC50 for antiproliferative activity against human MHCC97H cells; type: toxicity, cell-based; settings: HLF cells versus MHCC97H cells, read-out: Ratio IC50
NCI/ADR-RES [8] = assay: Antiproliferative activity against adriamycin resistant human MCF7/ADR cells assessed as reduction in cell viability incubated for 48 hrs by MTT assay; type: functional, cell-based
[9] = Resistance index, ratio of IC50 for antiproliferative activity against adriamycin resistant human MCF7/ADR cells to IC50 for antiproliferative activity against human MCF7 cells; type: functional
[10] = Resistance index, ratio of IC50 for antiproliferative activity against paclitaxel resistant human A2780/PTX cells to IC50 for antiproliferative activity against human A2780 cells; type: functional
MHCC97H [11] = assay: Induction of morphological changes in human MHCC97H cells assessed as cell shrinkage at 5 to 50 nM incubated for 48 hrs by phase contrast microscopic analysis; type: functional, cell-based; settings: dose 5-50 nM
MHCC97H [12] = assay: Induction of morphological changes in human MHCC97H cells assessed as membrane blebbing at 5 to 50 nM incubated for 48 hrs by phase contrast microscopic analysis; type: functional, cell-based; settings: dose 5-50 nM
MHCC97H [13] = assay: Induction of morphological changes in human MHCC97H cells assessed as loss of adherent property at 5 to 50 nM incubated for 48 hrs by phase contrast microscopic analysis; type: functional, cell-based; settings: dose 5-50 nM
HUVEC [14] = assay: Induction of morphological changes in human HUVEC cells assessed as cell shrinkage at 50 nM incubated for 48 hrs by phase contrast microscopic analysis; type: toxicity, cell-based; settings: 0.05 µM
HUVEC [15] = assay: Induction of morphological changes in human HUVEC cells assessed as loss of cell interactions at 50 nM incubated for 48 hrs by phase contrast microscopic analysis; type: toxicity, cell-based; settings: 0.05 µM
Tubulin (Homo sapiens) [16] = biological target: T1, Tubulin (Homo sapiens) (UniProt P68371+Q9H4B7+P0DPH7+P68366+Q13509+Q71U36+P04350+Q3ZCM7+P07437+P68363+Q9BQE3+Q6PEY2+Q13885+Q9BVA1+Q9BUF5); assay: Inhibition of colchicine binding to tubulin (unknown origin) at 1.25 uM by competitive binding assay relative to control; type: protein-complex assay
Tubulin (Homo sapiens) [17] = biological target: T1, Tubulin (Homo sapiens); assay: Inhibition of colchicine binding to tubulin (unknown origin) at 5.0 uM by competitive binding assay relative to control; type: protein-complex assay
Tubulin (Homo sapiens) [18] = biological target: T1, Tubulin (Homo sapiens); assay: Induction of microtubule disruption in human MHCC97H cells assessed as occurence of cell shrinkage at 10 nM measured after 8 hrs by immunofluorescence based confocal microscopic analysis
[19] = Inhibition of TrxR (unknown origin) using DTNB as substrate incubated for 5 mins in presence of NADPH followed by substrate addition by microplate reader analysis; set-up: species or system Homo sapiens
[20] = Inhibition of TrxR in human MHCC97H cells using DTNB as substrate preincubated for 4 hrs in presence of NADPH followed by substrate addition by microplate reader analysis; type: cell-based
Homo sapiens [21] = organism: Homo sapiens; assay: Irreversible inhibition of TrxR (unknown origin) using DTNB as substrate at 2.5 uM incubated for 2 hrs in presence of NADPH followed by substrate addition ultrafiltration based microplate reader analysis relative to control
Homo sapiens [22] = organism: Homo sapiens; assay: Irreversible inhibition of TrxR (unknown origin) using DTNB as substrate at 5 uM incubated for 2 hrs in presence of NADPH followed by substrate addition ultrafiltration based microplate reader analysis relative to control
MHCC97H [23] = assay: Downregulation of TrxR in human MHCC97H cells at 5 to 50 nM incubated for 48 hrs by Western blot analysis; type: functional, cell-based; settings: dose 5-50 nM
HCT-8/VCR = assay: Downregulation of TrxR in vincristine resistant human HCT-8/VCR cells at 10 to 50 nM incubated for 48 hrs by Western blot analysis; type: functional, cell-based; settings: dose 10-50 nM
A2780/PTX = assay: Downregulation of TrxR in paclitaxel resistant human A2780/PTX cells at 10 to 50 nM incubated for 48 hrs by Western blot analysis; type: functional, cell-based; settings: dose 10-50 nM
NCI/ADR-RES [24] = assay: Downregulation of TrxR in adriamycin resistant human MCF7/ADR cells at 10 to 50 nM incubated for 48 hrs by Western blot analysis; type: functional, cell-based; settings: dose 10-50 nM
MHCC97H [25] = assay: Induction of ROS production in human MHCC97H cells assessed as increase in accumulation ROS level at 5 to 50 nM incubated for 4 hrs by DCFH-DA staining based fluorescence microscopy; type: functional, cell-based; settings: dose 5-50 nM
MHCC97H [26] = assay: Induction of oxidative stress in human MHCC97H cells assessed as increase in superoxide anion level at 5 to 50 nM incubated for 4 hrs by DHE based fluorescence microscopy; type: functional, cell-based; settings: dose 5-50 nM
MHCC97H [27] = assay: Induction of apoptosis in human MHCC97H cells assessed as decrease in MMP level incubated for 24 hrs by JC-1 staining based fluorescence microscopy; type: functional, cell-based; settings: dose 5-50 nM, DDE = dose-dependent effect
MHCC97H [28] = assay: Induction of apoptosis in human MHCC97H cells assessed as increase in total apoptotic cells incubated for 24 to 48 hrs by Annexin V-FITC/PI staining based flow cytometry method; type: functional, cell-based; settings: dose 5-50 nM, time 24-48 hrs, DDE = dose-dependent effect
MHCC97H [29] = assay: Induction of apoptosis in human MHCC97H cells assessed as upregulation of Bax expression measured after 24 to 48 hrs by Western blot analysis; type: functional, cell-based; settings: dose 5-50 nM, time 24-48 hrs, DDE = dose-dependent effect
[30] = Toxicity in BALB/c mouse xenografted with human MHCC97H cells assessed as change in body weight at 30 mg/kg, ip administered every other day for 30 days; type: organism-based; settings: in vivo, 720 h, time 30 day
MHCC97H [31] = assay: Antitumor activity against human MHCC97H cells xenografted in BALB/c mouse assessed as tumor weight at 30 mg/kg, ip administered every other day for 30 days; type: functional; settings: time 30 day
Homo sapiens [32] = organism: Homo sapiens; assay: Mixed type inhibition of TrxR (unknown origin) using various concentrations of DTNB as substrate at 1.875 to 15 uM preincubated for 15 mins followed by substrate addition by double reciprocal Lineweaver-Burk plot analysis; settings: dose 1.875-15 µM

SMILES: COc1ccc2c(/C=C(\C)C(=O)c3cc(OC)c(OC)c([Se]C)c3)c[nH]c2c1
- IC50 (A2780): 18 nM
- Activity (MHCC97H [1]): Active
- IC50 (A549): 8 nM
- IC50 (MHCC97H [2]): 6 nM
- IC50 at 48 h [3]: 2370 nM
- IC50 at 48 h [4]: 723 nM
- selectivity ratio [5]: 9.33
- selectivity ratio [6]: 66.3
- selectivity ratio [7]: 394
- IC50 (NCI/ADR-RES [8]): 18 nM
- Ratio IC50 [9]: 0.51
- Ratio IC50 [10]: 1.11
- Activity (MHCC97H [11]): Active
- Activity (MHCC97H [12]): Active
- Activity (MHCC97H [13]): Active
- Activity (HUVEC [14]): Toxic
- Activity (HUVEC [15]): Toxic
- inhibition (Tubulin (Homo sapiens) [16]): 56.5%
- inhibition (Tubulin (Homo sapiens) [17]): 86.8%
- Activity (Tubulin (Homo sapiens) [18]): Active
- IC50 [19]: 3730 nM
- IC50 [20]: 10200 nM
- inhibition (Homo sapiens [21]): 58.4%
- inhibition (Homo sapiens [22]): 84%
- Activity (MHCC97H [23]): Active
- Activity (HCT-8/VCR): Active
- Activity (A2780/PTX): Active
- Activity (NCI/ADR-RES [24]): Active
- Activity (MHCC97H [25]): Active
- Activity (MHCC97H [26]): Active
- Activity (MHCC97H [27]): Dde
- Activity (MHCC97H [28]): Dde
- Activity (MHCC97H [29]): Dde
- Activity [30]: Non-Toxic
- Activity (MHCC97H [31]): 0.453 g
- inhibition (Homo sapiens [32]): Active
